This is an account of results in the OligoGym collection.

These antisense oligonucleotides have a phosphorothioate backbone; sugars and methylation of C are not fully specified.
Further: test concentration or dose not given here.

For the first data set, the target named is PRKACA. The following applies: ASO.
Take ACCCTCGCAGGATTGGCAGA: the remaining target (mRNA or protein) (fraction of control) is 0.47.

GTTGTCCTTGAAGGAGAACT registered a remaining target (mRNA or protein) (fraction of control) of at least 1. The sequence CAGGCAGCCCCTCCCCAGCA returned a remaining target (mRNA or protein) (fraction of control) of 0.51. Still for that read-out and setting: with GCGGCGGGTGCTGGCTGCGG the figure was 0.85. Still for that read-out and setting: in the case of GGAGCAGCTGGTGTTTCTGT it was 0.61; in that of TAGTTTTCAAATATGTTTAC, at least 1; in that of TGGCTCCCCAGCGGCTCCCC, 0.64. The same measure, in the same setting: in the case of CGCTGCTGGGAGGAAAGACT it was 0.48; in that of GCTTCTCTTTAAAATGGATT, 0.84; in that of ATTCTTTCACGCTCTCCTGC, 0.97. Sequence TGGCTGCGGCCGGCGGCCCG displayed a remaining target (mRNA or protein) (fraction of control) of 0.51.

In turn, CTTCCTCATAGTCGTCAAAG displayed a remaining target (mRNA or protein) (fraction of control) of 0.68. Still for that read-out and setting: in the case of TCGCGGCGGCGGCGGCCGGG it was 0.81; in that of TGCCCATCGCGGCGGCGGCG, 0.71; in that of CACACAGGTTGAATCGCCCC, 0.39. Still for that read-out and setting: in the case of GCGGCGGCGTTGCCCATCGC it was 0.33; in that of CAAACTGATCCAAGTGGGCT, 0.27; in that of CCTTGAACCCCGGGCCGTGG, 0.44. Still for that read-out and setting: in the case of CATCGCGGCGGCGGCGGCCG it was 0.51; in that of GGCGGCGTTGCCCATCGCGG, 0.31; in that of AAGCAACCCACTGAACATGT, 0.62.

The sequence CGGCGTTGCCCATCGCGGCG registered a remaining target (mRNA or protein) (fraction of control) of 0.47. On the same count and under the same terms, in the case of GTTGCCCATCGCGGCGGCGG it was 0.53.

The next data set has as its target CHUK. The following applies: ASO.
Sequence ACATTGCTGCCCTTTGTC returned a remaining target (mRNA or protein) (fraction of control) of 0.54. The same measure, in the same setting: in the case of TCTCCTCCAGAACAGTAT it was at least 1; in that of TAATCTGGATTTCATGGC, at least 1.

In turn, GACATAATCTGATCCTCC registered a remaining target (mRNA or protein) (fraction of control) of at least 1. The same measure, in the same setting: in the case of CTGAGGGTCCCAATTCAA it was 0.88. On the same count and under the same terms, with TATTTTATGTATTATCTT the figure was at least 1; with ATACAGTTTTACTTTTAT, at least 1; with TTACTGAGGGCCACTTCC, 0.48. Same read-out and setting: with CTCTCCAAGTCAAGCTGA the figure was 0.49; with AATTTACACAATCAGATA, at least 1. AGAACACATTGAGAGGCT displayed a remaining target (mRNA or protein) (fraction of control) of 0.8.

For AGCAATACATTCAAATAC, the remaining target (mRNA or protein) (fraction of control) is at least 1. On the same count and under the same terms, with GGTAACAGAAAAGAAATT the figure was at least 1. On the same count and under the same terms, with AAGTCTCCCCATCTTGAG the figure was at least 1; with TGCCCAGCCGCTCCCGCA, 0.85; with TGTGTAAGGCTTATTCTC, 0.91. On the same count and under the same terms, in the case of AGTATCTGGCTTTCTTTA it was at least 1.

TGTTCCAGAGATTCCATC showed a remaining target (mRNA or protein) (fraction of control) of at least 1. Still for that read-out and setting: in the case of TTCTTGAGAACCAGTATT it was at least 1; in that of TAGAAGAGGCACATCATG, 0.76. On the same count and under the same terms, in the case of AAATATACACTTTGGATC it was at least 1; in that of GCTGTCACTGTAGGAGTG, 0.75; in that of TCTCGATGTATAATTTTG, at least 1. The same measure, in the same setting: in the case of ACAGACAGACGTTCCCGA it was 0.85; in that of TTCAGCCCACACTTTACG, 0.58. CTACTAAACCGAACTTCT showed a remaining target (mRNA or protein) (fraction of control) of at least 1. Regarding ATCTTGGCTGCTTCAAAG, the remaining target (mRNA or protein) (fraction of control) came to 0.6. On the same count and under the same terms, in the case of CTTCTGCTTACAGCCCAA it was 0.56. Sequence CTTAATTGCTATTTTGAG registered a remaining target (mRNA or protein) (fraction of control) of at least 1. Still for that read-out and setting: with CAAGAGAGCGGGCAGAAC the figure was at least 1; with TCAATACGAGACTGTAGT, at least 1. Still for that read-out and setting: in the case of TGAGCACACGGTCCTGAC it was 0.79. As to CTTAGCTCTAGGCGACAA, the remaining target (mRNA or protein) (fraction of control) was 0.56.

AGGATGTGTACTATCTTC showed a remaining target (mRNA or protein) (fraction of control) of 0.79. On the same count and under the same terms, with CCCTGCATGAACATGACA the figure was 0.47.
